In ChEMBL document CHEMBL4190322, “Structure-based development of novel triazoles and related thiazolotriazoles as anticancer agents and Cdc25A/B phosphatase inhibitors. Synthesis, in vitro biological evaluation, molecular docking and in silico ADME-T studies” (Eur J Med Chem, 2017):
The source made the active and inactive calls. The calls are words filed in the database; no cut-off is given here.

Assays:
Assay type in all cases: functional
[1] = system: RPMI-8226; experiment: Growth inhibition of human RPMI8226 cells at 10 uM after 48 hrs by SRB assay relative to control
[2] = system: HT-29; experiment: Growth inhibition of human HT-29 cells at 10 uM after 48 hrs by SRB assay relative to control
[3] = system: NCI-H522; experiment: Growth inhibition of human NCI-H522 cells at 10 uM after 48 hrs by SRB assay relative to control; conditions: NCI-H522, 48 h, read-out: GI
[4] = system: MCF7; experiment: Growth inhibition of human MCF7 cells at 10 uM after 48 hrs by SRB assay relative to control
[5] = system: A549; experiment: Growth inhibition of human A549 cells at 10 uM after 48 hrs by SRB assay relative to control
[6] = system: LOX IMVI; experiment: Growth inhibition of human LOXIMVI cells at 10 uM after 48 hrs by SRB assay relative to control; conditions: read-out: GI
[7] = system: HCT-116; experiment: Growth inhibition of human HCT116 cells at 10 uM after 48 hrs by SRB assay relative to control
[8] = system: Malme-3M; experiment: Growth inhibition of human MALME-3M cells at 10 uM after 48 hrs by SRB assay relative to control; conditions: read-out: GI
[9] = system: KM12; experiment: Growth inhibition of human KM12 cells at 10 uM after 48 hrs by SRB assay relative to control
[10] = system: A498; experiment: Growth inhibition of human A498 cells at 10 uM after 48 hrs by SRB assay relative to control
[11] = system: HL-60; experiment: Growth inhibition of human HL60 cells at 10 uM after 48 hrs by SRB assay relative to control
[12] = system: UO-31; experiment: Growth inhibition of human UO31 cells at 10 uM after 48 hrs by SRB assay relative to control; conditions: UO-31, 48 h, read-out: GI
[13] = system: Hs-578T; experiment: Growth inhibition of human Hs 578T cells at 10 uM after 48 hrs by SRB assay relative to control; conditions: read-out: GI
[14] = system: CAKI-1; experiment: Growth inhibition of human Caki1 cells at 10 uM after 48 hrs by SRB assay relative to control
[15] = system: SNB-75; experiment: Growth inhibition of human SNB75 cells at 10 uM after 48 hrs by SRB assay relative to control
[16] = system: U-251; experiment: Growth inhibition of human U251 cells at 10 uM after 48 hrs by SRB assay relative to control; conditions: U-251, 48 h, read-out: GI
[17] = system: CCRF-CEM; experiment: Growth inhibition of human CCRF-CEM cells at 10 uM after 48 hrs by SRB assay relative to control; conditions: read-out: GI
[18] = system: OVCAR-8; experiment: Growth inhibition of human OVCAR8 cells at 10 uM after 48 hrs by SRB assay relative to control
[19] = system: OVCAR-3; experiment: Growth inhibition of human OVCAR3 cells at 10 uM after 48 hrs by SRB assay relative to control
[20] = system: K562; experiment: Growth inhibition of human K562 cells at 10 uM after 48 hrs by SRB assay relative to control; conditions: K562, 48 h, read-out: GI
[21] = system: OVCAR-4; experiment: Growth inhibition of human OVCAR4 cells at 10 uM after 48 hrs by SRB assay relative to control
[22] = system: UACC-257; experiment: Growth inhibition of human UACC257 cells at 10 uM after 48 hrs by SRB assay relative to control
[23] = system: NCI-H322M; experiment: Growth inhibition of human NCI-H322M cells at 10 uM after 48 hrs by SRB assay relative to control
[24] = system: 786-0; experiment: Growth inhibition of human 786-0 cells at 10 uM after 48 hrs by SRB assay relative to control
[25] = system: SNB-19; experiment: Growth inhibition of human SNB19 cells at 10 uM after 48 hrs by SRB assay relative to control
[26] = system: NCI-H23; experiment: Growth inhibition of human NCI-H23 cells at 10 uM after 48 hrs by SRB assay relative to control; conditions: NCI-H23, 48 h, read-out: GI
[27] = system: HOP-92; experiment: Growth inhibition of human HOP92 cells at 10 uM after 48 hrs by SRB assay relative to control; conditions: HOP-92, 48 h, read-out: GI
[28] = system: HOP-62; experiment: Growth inhibition of human HOP62 cells at 10 uM after 48 hrs by SRB assay relative to control; conditions: HOP-62, 48 h, read-out: GI
[29] = system: NCI-H226; experiment: Growth inhibition of human NCI-H226 cells at 10 uM after 48 hrs by SRB assay relative to control
[30] = system: RXF 393; experiment: Growth inhibition of human RXF393 cells at 10 uM after 48 hrs by SRB assay relative to control
[31] = system: SF-268; experiment: Growth inhibition of human SF268 cells at 10 uM after 48 hrs by SRB assay relative to control
[32] = system: SK-MEL-2; experiment: Growth inhibition of human SK-MEL-2 cells at 10 uM after 48 hrs by SRB assay relative to control; conditions: SK-MEL-2, 48 h, read-out: GI
[33] = system: MDA-MB-468; experiment: Growth inhibition of human MDA-MB-468 cells at 10 uM after 48 hrs by SRB assay relative to control
[34] = system: SK-OV-3; experiment: Growth inhibition of human SKOV3 cells at 10 uM after 48 hrs by SRB assay relative to control; conditions: SK-OV-3, 48 h, read-out: GI
[35] = system: SR; experiment: Growth inhibition of human SR cells at 10 uM after 48 hrs by SRB assay relative to control; conditions: read-out: GI
[36] = system: PC-3; experiment: Growth inhibition of human PC3 cells at 10 uM after 48 hrs by SRB assay relative to control; conditions: PC-3, 48 h, read-out: GI
[37] = system: NCI/ADR-RES; experiment: Growth inhibition of human NCI/ADR-RES cells at 10 uM after 48 hrs by SRB assay relative to control; conditions: read-out: GI
[38] = system: UACC-62; experiment: Growth inhibition of human UACC62 cells at 10 uM after 48 hrs by SRB assay relative to control; conditions: UACC-62, 48 h, read-out: GI
[39] = system: MOLT-4; experiment: Growth inhibition of human MOLT4 cells at 10 uM after 48 hrs by SRB assay relative to control; conditions: MOLT-4, 48 h, read-out: GI
[40] = system: SK-MEL-5; experiment: Growth inhibition of human SK-MEL-5 cells at 10 uM after 48 hrs by SRB assay relative to control; conditions: SK-MEL-5, 48 h, read-out: GI

For `COc1ccc(Cc2nnc(SCC(=O)Nc3ccc(C)cc3)n2-c2ccccc2)cc1`, the “growth inhibition (GI)” value [1] was “inactive”, the “growth inhibition (GI)” value [2] was “inactive” and the inhibition of growth at 10 µM [3] was 19%. For the same compound, the “growth inhibition (GI)” value [4] was “inactive”, the “growth inhibition (GI)” value [5] was “inactive” and the inhibition of growth at 10 µM [6] was 2.2%. The “growth inhibition (GI)” value [7] was “inactive”, the inhibition of growth at 10 µM [8] was 1.56% and the “growth inhibition (GI)” value [9] was “inactive”. For the same compound, the “growth inhibition (GI)” value [10] was “inactive”, the “growth inhibition (GI)” value [11] was “inactive” and the inhibition of growth at 10 µM [12] was 11.4%. For the same compound, the inhibition of growth at 10 µM [13] was 1.15%, the “growth inhibition (GI)” value [14] was “inactive” and the “growth inhibition (GI)” value [15] was “inactive”. The inhibition of growth at 10 µM [16] was 1.62%, the inhibition of growth at 10 µM [17] was 8.16% and the “growth inhibition (GI)” value [18] was “inactive”. For the same compound, the “growth inhibition (GI)” value [19] was “inactive”, the inhibition of growth at 10 µM [20] was 9.31% and the “growth inhibition (GI)” value [21] was “inactive”. The “growth inhibition (GI)” value [22] was “inactive”, the “growth inhibition (GI)” value [23] was “inactive” and the “growth inhibition (GI)” value [24] was “inactive”. For the same compound, the “growth inhibition (GI)” value [25] was “inactive”, the inhibition of growth at 10 µM [26] was 5.6% and the inhibition of growth at 10 µM [27] was 8.7%. For the same compound, the inhibition of growth at 10 µM [28] was 6.8%, the “growth inhibition (GI)” value [29] was “inactive” and the “growth inhibition (GI)” value [30] was “inactive”. For the same compound, the “growth inhibition (GI)” value [31] was “inactive”, the inhibition of growth at 10 µM [32] was 17.3% and the “growth inhibition (GI)” value [33] was “inactive”. It also gave an inhibition of growth at 10 µM [34] of 7.38%, an inhibition of growth at 10 µM [35] of 17% and an inhibition of growth at 10 µM [36] of 16.3%. The inhibition of growth at 10 µM [37] was 6.11%, the inhibition of growth at 10 µM [38] was 2.9% and the inhibition of growth at 10 µM [39] was 14.9%. The inhibition of growth at 10 µM [40] was 1.4%.
